Data as given in patent publication US20030087237A1, “Low-temperature cycle extension of DNA with high polymerization specificity” (priority 2001, published 2003).
Entries after “also recorded” stand apart in the source; their conditions may differ. Where two headings read alike, the source gives them in different places.

Tests used:
[1] = target: T1, Bst-II DNA polymerase (Geobacillus stearothermophilus, UniProt P52026, A297E/A304V/A338V/A377V/A406D/A433V/A505S/D300E/D309E/D325E/D402N/D540E/D696E/D751E/E459Q/E464D/E476K/E631P/E632L/E667D/F710Y/G298E/G324E/G362A/G483A/G678D/H329D/H417K/H573N/H596R/H691Q/K356Q/K494N/L346M/L461F/L630T/N487E/P355S/P441Q/P480A/Q479H/Q512R/R341H/R467N/R472Q/R516Q/R676Q/R816K/R819Q/R846E/S306V/S373A/S812A/T369S/T436S/T508A/T536V/V307I/V323M/V391A/V410I/V437L/V514I/V537I/V598D/V619A/V692L/V813A); type: biochemical, Bacillus stearothermophilus; details: for effect on 5′-3′ polymerization activity of the polymerase: 65° C.
T1 construct: made in house
Experimental: The remaining activity of Bst-II DNA polymerase (produced according to U.S. Pat. No. 6,165,765) in the presence of different concentrations of Glycerol was determined as follows:
(a) In a series of numbered 0.5 ml microcentrifuge tubes were added the following:
The mixtures above were firstly evaporated by Speed-Vacuum, then varying final concentrations of glycerol in each reaction mixture were achieved by adding an appropriate amount of a glycerol stock solution to the above microcentrifuge tubes as indicated below.
(b) All these tubes were incubated at 65° C. for 30 minutes. Then each of the reaction mixtures was pipetted onto a DE-81 filter. After all of the fluid has evaporated, the amount of radioactivity on each filter was measured with scintillation and recorded as X1. Thereafter, the filters were washed three times with 0.3 M Na2HPO4 solution at room temperature, 10 minutes each times, dried at room temperature and then the amount of radioactivity on each filter was measured again and recorded as X2. Incorporation ratio=X2/X1. [formula]

[2] = target: T1, Bst-II DNA polymerase; test: Low-temperature cycle primer extension with Bst-II at different glycerol concentrations (agarose gel); type: biochemical, Bacillus stearothermophilus
Experimental: Bst-II DNA polymerase was used for the study. […]
(§1) The reaction products were run on a 1% agarose gel for electrophoresis and stained by ethidium bromide.
Four different sets of templates and primers were selected representing varying lengths of the DNA segments to be amplified:
The low temperature cycle extension was carried out as follows:
(a) To a 0.2 ml microcentrifuge tube were added.
(b) The mixture above was firstly evaporated by Speed-Vacuum, then the following were added to each microcentrifuge tube containing the evaporated reagents with different sets of template and primers to achieve a final concentration of 35% glycerol and 15% glycerol in the reaction mixture, respectively.
(c) All the microcentrifuge tubes with the reaction mixture were subjected to low temperature cycling as follows:
The reaction products were run on a 1% agarose gel for electrophoresis and stained by ethidium bromide. The reaction products from the mixture containing 35% glycerol were loaded in lane 1, and the reaction products from the mixture containing 15% glycerol were loaded in lane 2.

[3] = system: rice genome BAC B414f7; test: Low-temperature cycle extension of 17 mer and 30 mer primers with different DNA polymerases (agarose gel); type: biochemical; details: Bst system, 15% glycerol, 70° C./37° C./50° C., 35 cycles
Experimental: The polymerases used were Bst-I (wild type produced according to U.S. Pat. No. 5,834,254), Bst-II, and Bca (TaKaRa Co.). The Klenow fragment (Sigma Chemical Co.) was used as a thermolabile DNA polymerase for comparison (Iakobashvili and Lapidot).
The template used was rice genome BAC B414f7.
The two pairs of primers used were: […]
The following reaction system (referred to hereafter as the Bst system) was used.
(a) In a 0.2 ml microcentrifuge tube were added:
(b) The microcentrifuge tubes were subjected to the following temperature cycling.
as §1
In addition, the method of using a reaction mixture containing 4.5 M proline and 17% glycerol in Tris-HCl buffer as recommended by Iakobashvili and Lapidot was also adopted for the reactions with Klenow fragment as the DNA polymerase (hereafter referred to as the Iakobashvili and Lapidot system). The reaction products were also run parallel to those obtained with the Bst system, and illustrated as follows in FIG. 4.

[4] = higher concentrations (greater than about 35%)
[5] = low concentration, not exceeding / up to about 20% (v/v)

T1 sequence (P52026 other isoform, or with tags, fused parts or gaps with the stated changes): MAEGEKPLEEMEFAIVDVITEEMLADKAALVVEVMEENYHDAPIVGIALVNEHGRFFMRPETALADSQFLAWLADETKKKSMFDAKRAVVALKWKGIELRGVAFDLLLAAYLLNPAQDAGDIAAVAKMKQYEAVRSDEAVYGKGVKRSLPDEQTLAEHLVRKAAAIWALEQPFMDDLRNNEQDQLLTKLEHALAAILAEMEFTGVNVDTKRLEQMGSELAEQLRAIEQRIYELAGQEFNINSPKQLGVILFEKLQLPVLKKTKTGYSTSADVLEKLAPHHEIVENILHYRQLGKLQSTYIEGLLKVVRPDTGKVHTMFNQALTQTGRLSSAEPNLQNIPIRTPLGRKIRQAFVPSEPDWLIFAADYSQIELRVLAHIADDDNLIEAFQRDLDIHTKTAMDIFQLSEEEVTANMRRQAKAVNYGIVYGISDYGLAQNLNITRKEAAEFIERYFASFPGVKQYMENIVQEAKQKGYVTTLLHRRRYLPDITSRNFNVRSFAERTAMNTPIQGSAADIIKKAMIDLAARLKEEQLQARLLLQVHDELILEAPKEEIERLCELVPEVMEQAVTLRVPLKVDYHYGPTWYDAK

| Molecule | effect on 5′-3′ polymerization activity of the polymerase [1, 4] | effect on 5′-3′ polymerization activity of the polymerase [1, 5] | amplification products on gel ([2]; 15% glycerol, target products 250 bp to 2 Kb) | amplification products on gel ([2]; 35% glycerol, target product 1 Kb and 2 Kb) | amplification products on gel ([2]; 35% glycerol, target product 250 bp or 400 bp) | amplification products on gel ([2]; 40% glycerol, template pBluescript(+), low or high template concentration, 70° C./45° C., 35 cycles) | loss of original polymerization activity ([1]; glycerol 40% (v/v)) | amplification product from 17 mer and 30 mer primer extension [3] |
| --- | --- | --- | --- | --- | --- | --- | --- | --- |
| OCCO [ethylene glycol] | detrimental inhibitory effect | increase the sequence-specific DNA polymerization activity |  |  |  |  |  |  |
| OCC(O)CO [glycerol] | detrimental inhibitory effect; also recorded: invariably suppressed this enzymatic activity | increased the enzymatic activity; also recorded: increase the sequence-specific DNA polymerization activity; also recorded: increased the 5′-3′ polymerization activity | specific amplification products | both specific and non-specific amplification products | no amplification products produced at all | non-specific amplification products of varying sizes | ⅔ |  |
| Bst-I: wild type, natural form of Bacillus stearothermophilus DNA polymerase (protein, UniProt P52026 1-876, looked up) DNA polymerase I: MKNKLVLIDGNSVAYRAFFALPLLHNDKGIHTNAVYGFTMMLNKILAEEQPTHILVAFDAGKTTFRHETFQDYKGGRQQTPPELSEQFPLLRELLKAYRIPAYELDHYEADDIIGTMAARAEREGFAVKVISGDRDLTQLASPQVTVEITKKGITDIESYTPETVVEKYGLTPEQIVDLKGLMGDKSDNIPGVPGIGEKTAVKLLKQFGTVENVLASIDEIKGEKLKENLRQYRDLALLSKQLAAICRDAPVELTLDDIVYKGEDREKVVALFQELGFQSFLDKMAVQTDEGEKPLAGMDFAIADSVTDEMLADKAALVVEVVGDNYHHAPIVGIALANERGRFFLRPETALADPKFLAWLGDETKKKTMFDSKRAAVALKWKGIELRGVVFDLLLAAYLLDPAQAAGDVAAVAKMHQYEAVRSDEAVYGKGAKRTVPDEPTLAEHLVRKAAAIWALEEPLMDELRRNEQDRLLTELEQPLAGILANMEFTGVKVDTKRLEQMGAELTEQLQAVERRIYELAGQEFNINSPKQLGTVLFDKLQLPVLKKTKTGYSTSADVLEKLAPHHEIVEHILHYRQLGKLQSTYIEGLLKVVHPVTGKVHTMFNQALTQTGRLSSVEPNLQNIPIRLEEGRKIRQAFVPSEPDWLIFAADYSQIELRVLAHIAEDDNLIEAFRRGLDIHTKTAMDIFHVSEEDVTANMRRQAKAVNFGIVYGISDYGLAQNLNITRKEAAEFIERYFASFPGVKQYMDNIVQEAKQKGYVTTLLHRRRYLPDITSRNFNVRSFAERTAMNTPIQGSAADIIKKAMIDLSVRLREERLQARLLLQVHDELILEAPKEEIERLCRLVPEVMEQAVTLRVPLKVDYHYGPTWYDAK |  |  |  |  |  |  |  | generated specific amplification products |
